Several values for one entry are separate records, joined by “and”; a condition that tells them apart may be missing. Equal entries are not always repeated. Toxic doses and inconclusive results are not listed. Rule as the data show it: active = T/C of 150% or more; inactive = T/C below 125%.
Test system: L1210 leukemia ip in BDF1 mice, survival T/C
Experiment: NCI In Vivo Anticancer Drug Screen. Data for tumor model L1210 Leukemia (intraperitoneal) in B6D2F1 (BDF1) mice
Settings: endpoint: mean survival time, higher = longer survival
In short: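 Transplanted-tumor mice were given test agent; controls received vehicle only. Survival readings from the two groups were divided (treated over control).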

[1] = dose: 100.0 mg/kg/injection, schedule: Q01DX009 (ip), vehicle: Klucel (hydroxypropylcellulose) (HPC)
[2] = dose: 200.0 mg/kg/injection, schedule: Q01DX009 (ip), vehicle: Klucel (hydroxypropylcellulose) (HPC)
[3] = dose: 400.0 mg/kg/injection, schedule: Q01DX009 (ip), vehicle: Klucel (hydroxypropylcellulose) (HPC)
[4] = dose: 75.0 mg/kg/injection, schedule: Q01DX001 (ip), vehicle: saline
[5] = dose: 150.0 mg/kg/injection, schedule: Q01DX001 (ip), vehicle: saline
[6] = dose: 100.0 mg/kg/injection, schedule: Q04DX003 (ip), vehicle: saline with Tween-80
[7] = dose: 200.0 mg/kg/injection, schedule: Q04DX003 (ip), vehicle: saline with Tween-80
[8] = dose: 400.0 mg/kg/injection, schedule: Q04DX003 (ip), vehicle: saline with Tween-80
[9] = dose: 50.0 mg/kg/injection, schedule: Q01DX009 (ip), vehicle: saline
[10] = dose: 100.0 mg/kg/injection, schedule: Q01DX009 (ip), vehicle: saline with Tween-80
[11] = dose: 100.0 mg/kg/injection, schedule: Q01DX009 (ip), vehicle: saline
[12] = dose: 200.0 mg/kg/injection, schedule: Q01DX009 (ip), vehicle: saline with Tween-80
[13] = dose: 400.0 mg/kg/injection, schedule: Q01DX009 (ip), vehicle: saline with Tween-80
[14] = dose: 25.0 mg/kg/injection, schedule: Q01DX009 (ip), vehicle: saline
[15] = dose: 50.0 mg/kg/injection, schedule: Q04DX003 (ip), vehicle: saline
[16] = dose: 100.0 mg/kg/injection, schedule: Q01DX001 (ip), vehicle: saline
[17] = dose: 100.0 mg/kg/injection, schedule: Q04DX003 (ip), vehicle: saline
[18] = dose: 200.0 mg/kg/injection, schedule: Q01DX001 (ip), vehicle: saline
[19] = dose: 400.0 mg/kg/injection, schedule: Q01DX001 (ip), vehicle: saline
[20] = dose: 25.0 mg/kg/injection, schedule: Q04DX003 (ip), vehicle: saline
[21] = dose: 200.0 mg/kg/injection, schedule: Q04DX003 (ip), vehicle: saline
[22] = dose: 400.0 mg/kg/injection, schedule: Q04DX003 (ip), vehicle: saline

Measured: T/C

CCCCCCCCCCCCCCCCN(C(C)c1ccccc1)S(=O)(=O)c1ccc(OC)c(N)c1 (centres undefined)
inactive: dose: 100.0 mg/kg/injection, schedule: Q01DX001 (ip), vehicle: Klucel (hydroxypropylcellulose) (HPC) 93 % of control | [1] 94 % of control | dose: 100.0 mg/kg/injection, schedule: Q04DX003 (ip), vehicle: Klucel (hydroxypropylcellulose) (HPC) 98 % of control | dose: 200.0 mg/kg/injection, schedule: Q01DX001 (ip), vehicle: Klucel (hydroxypropylcellulose) (HPC) 88 % of control | [2] 94 % of control | dose: 200.0 mg/kg/injection, schedule: Q04DX003 (ip), vehicle: Klucel (hydroxypropylcellulose) (HPC) 98 % of control | dose: 400.0 mg/kg/injection, schedule: Q01DX001 (ip), vehicle: Klucel (hydroxypropylcellulose) (HPC) 88 % of control | [3] 95 % of control | dose: 400.0 mg/kg/injection, schedule: Q04DX003 (ip), vehicle: Klucel (hydroxypropylcellulose) (HPC) 98 % of control

CSc1ncnc2c1nc[n]2[Sn]([c]1ccccc1)([c]1ccccc1)[c]1ccccc1.CSc1ncnc2nc[nH]c12
inactive: dose: 5.0 mg/kg/injection, schedule: Q01DX001 (ip), vehicle: other 108 % of control | dose: 10.0 mg/kg/injection, schedule: Q01DX001 (ip), vehicle: other 104 % of control | dose: 20.0 mg/kg/injection, schedule: Q01DX001 (ip), vehicle: other 111 % of control

NC(N)=N/N=C/c1cc(Br)ccc1O
inactive: [4] 102 % of control | [5] 98 % of control

O=[N+]([O-])c1ccccc1C/C=C/CCl
inactive: dose: 100.0 mg/kg/injection, schedule: Q01DX001 (ip), vehicle: carboxymethylcellulose (CMC) 100 % of control | dose: 200.0 mg/kg/injection, schedule: Q01DX001 (ip), vehicle: carboxymethylcellulose (CMC) 96 % of control | dose: 400.0 mg/kg/injection, schedule: Q01DX001 (ip), vehicle: carboxymethylcellulose (CMC) 94 % of control

CN(N=O)C(=O)NCCNC(=O)N(C)N=O
inactive: dose: 150.0 mg/kg/injection, schedule: Q01DX Z (ip), vehicle: carboxymethylcellulose (CMC) 108 % of control

O=[N+]([O-])c1ccccc1S(=O)(=O)Nc1ccccc1F
inactive: [1] 105 % of control | [2] 100 % of control | [3] 101 % of control

CC[N+]1(C)CCC(CN2c3ccccc3Sc3ccccc32)C1 (centres undefined)
inactive: [6] 100 % of control | [7] 103 % of control | [8] 100 % of control

O=C(OCC1OCC(OC(=O)c2ccccc2)C1OC(=O)c1ccccc1)c1ccccc1 (centres undefined)
inactive: dose: 100.0 mg/kg/injection, schedule: Q01DX001 (ip), vehicle: saline with Tween-80 92 % of control | dose: 200.0 mg/kg/injection, schedule: Q01DX001 (ip), vehicle: saline with Tween-80 110 % of control

COC(C(OC)N1CCOCC1)N1CCOCC1 (centres undefined)
inactive: [9] 102 % of control | [10] 95 % of control | [11] 110 % of control | [6] 93 % of control | dose: 132.0 mg/kg/injection, schedule: Q01DX009 (ip), vehicle: saline with Tween-80 90 % of control | [12] 101 % of control and 97 % of control | [7] 98 % of control | dose: 300.0 mg/kg/injection, schedule: Q01DX009 (ip), vehicle: saline with Tween-80 99 % of control | [13] 89 % of control | [8] 94 % of control

CC1C(C)(C)C1(Cl)Cl (centres undefined)
inactive: dose: 50.0 mg/kg/injection, schedule: Q01DX009 (ip), vehicle: saline sonified 92 % of control | dose: 100.0 mg/kg/injection, schedule: Q01DX009 (ip), vehicle: saline sonified 92 % of control | dose: 200.0 mg/kg/injection, schedule: Q01DX009 (ip), vehicle: saline sonified 101 % of control

CC1CN1N (centres undefined)
inactive: [14] 101 % of control | [9] 101 % of control | [15] 109 % of control | [16] 105 % of control | [11] 98 % of control | [17] 103 % of control | [18] 105 % of control

O=C1CCCC1C(=O)Nc1cccc2ccccc12 (centres undefined)
inactive: dose: 50.0 mg/kg/injection, schedule: Q01DX001 (ip), vehicle: saline 97 % of control | [16] 103 % of control | [18] 97 % of control | [19] 97 % of control

O=C(O)C(Cl)C(Cl)c1ccccc1 (centres undefined)
inactive: [4] 98 % of control | [5] 98 % of control | dose: 300.0 mg/kg/injection, schedule: Q01DX001 (ip), vehicle: saline 101 % of control

Cn1c2c(c3ccccc31)CC(C(C)(C)C)CC2 (centres undefined)
inactive: dose: 50.0 mg/kg/injection, schedule: Q04DX002 (ip), vehicle: saline with Tween-80 107 % of control | dose: 100.0 mg/kg/injection, schedule: Q04DX002 (ip), vehicle: saline with Tween-80 100 % of control | dose: 200.0 mg/kg/injection, schedule: Q04DX002 (ip), vehicle: saline with Tween-80 97 % of control

O=C(Nc1cccc(Br)c1)c1cc(Cl)cc(Cl)c1Br
inactive: dose: 87.5 mg/kg/injection, schedule: Q04DX003 (ip), vehicle: saline with Tween-80 105 % of control | dose: 175.0 mg/kg/injection, schedule: Q04DX003 (ip), vehicle: saline with Tween-80 97 % of control | dose: 350.0 mg/kg/injection, schedule: Q04DX003 (ip), vehicle: saline with Tween-80 97 % of control

Cc1ccncc1C1CCCN1C (centres undefined)
inactive: [20] 94 % of control | [15] 102 % of control | [17] 94 % of control

O=C(O)CCN1C(=O)c2ccccc2C1=O
inactive: [10] 96 % of control | [12] 95 % of control | [13] 102 % of control

COc1ccccc1C1OC1C(=O)O (centres undefined)
inactive: [16] 102 % of control | [18] 94 % of control | [19] 103 % of control

O=C(O)c1ccc(P(=O)(O)O)cc1[N+](=O)[O-]
inactive: [15] 95 % of control | [17] 100 % of control

COC(=O)Cc1cc(=O)c2cc(C)ccc2[nH]1
inactive: dose: 50.0 mg/kg/injection, schedule: Q01DX009 (ip), vehicle: acetone 94 % of control | dose: 100.0 mg/kg/injection, schedule: Q01DX009 (ip), vehicle: acetone 101 % of control | [17] 94 % of control | dose: 200.0 mg/kg/injection, schedule: Q01DX009 (ip), vehicle: acetone 97 % of control | [21] 94 % of control | [22] 94 % of control

CC(C)([CH2][Sn]([Cl])([Cl])[CH2]C(C)(C)c1ccccc1)c1ccccc1
inactive: dose: 0.1 mg/kg/injection, schedule: Q04DX002 (ip), vehicle: saline with Tween-80 95 % of control | dose: 0.2 mg/kg/injection, schedule: Q04DX002 (ip), vehicle: saline with Tween-80 95 % of control | dose: 0.4 mg/kg/injection, schedule: Q04DX002 (ip), vehicle: saline with Tween-80 95 % of control | dose: 0.8 mg/kg/injection, schedule: Q04DX002 (ip), vehicle: saline with Tween-80 92 % of control | dose: 3.13 mg/kg/injection, schedule: Q04DX002 (ip), vehicle: saline with Tween-80 98 % of control

CCC(C)c1cc([N+](=O)[O-])cc([N+](=O)[O-])c1O (centres undefined)
inactive: dose: 12.5 mg/kg/injection, schedule: Q04DX003 (ip), vehicle: Klucel (hydroxypropylcellulose) (HPC) 95 % of control | dose: 25.0 mg/kg/injection, schedule: Q04DX003 (ip), vehicle: Klucel (hydroxypropylcellulose) (HPC) 98 % of control | dose: 50.0 mg/kg/injection, schedule: Q04DX003 (ip), vehicle: Klucel (hydroxypropylcellulose) (HPC) 96 % of control

CCC1(c2ccccc2)CN(C)C1=O (centres undefined)
inactive: [14] 103 % of control | [20] 92 % of control | [9] 106 % of control | [15] 97 % of control | [11] 105 % of control | [17] 97 % of control | dose: 200.0 mg/kg/injection, schedule: Q01DX009 (ip), vehicle: saline 102 % of control | [21] 95 % of control | dose: 400.0 mg/kg/injection, schedule: Q01DX009 (ip), vehicle: saline 100 % of control | [22] 92 % of control

— PubChem BioAssay AID248 (DTP/NCI, 2004)
